Patent publication US7244727B2, “Fused bicyclic nitrogen-containing heterocycles” (Japan Tobacco Inc., priority 2002, dated 2007)

Legend:
human DGAT1 = target: T1, human DGAT1 (Homo sapiens, UniProt O75907); assay: DGAT Scintillation Proximity Assay (SPA) with membranes of insect cells expressing human flagtag DGAT1; format: biochemical; conditions: read-out: hDGAT1 IC50
T1 construct: made in house; host or cells: insect cells (sf9, sf21 or High Five) infected with baculovirus; total cell membranes
T1 sequence (O75907 1-488): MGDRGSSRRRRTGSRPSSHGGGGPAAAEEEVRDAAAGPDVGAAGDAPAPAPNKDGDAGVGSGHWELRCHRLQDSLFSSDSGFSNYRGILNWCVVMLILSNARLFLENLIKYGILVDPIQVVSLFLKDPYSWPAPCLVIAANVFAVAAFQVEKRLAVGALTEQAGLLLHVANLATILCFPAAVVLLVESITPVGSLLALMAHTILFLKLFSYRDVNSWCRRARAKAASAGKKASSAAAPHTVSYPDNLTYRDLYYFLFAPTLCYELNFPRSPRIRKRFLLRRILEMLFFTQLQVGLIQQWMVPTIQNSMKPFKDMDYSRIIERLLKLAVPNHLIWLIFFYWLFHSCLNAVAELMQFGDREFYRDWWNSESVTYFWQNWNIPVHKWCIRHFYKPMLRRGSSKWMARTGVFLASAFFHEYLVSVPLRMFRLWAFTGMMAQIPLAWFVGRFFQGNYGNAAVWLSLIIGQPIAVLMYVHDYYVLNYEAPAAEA
In short: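 Membranes (0.2 μg/well) from insect cells expressing human flag-tagged DGAT1 incubated with 10 μM compound and 200 μM dioleoyl glycerol substrate; mercuric chloride as inhibition control. Reaction stopped with WGA SPA beads in mercuric chloride, overnight bead coupling, then scintillation proximity signal read.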

SMILES	IC50 (human DGAT1)	melting point
Cc1csc(NC[C@H]2CC[C@H](c3ccc(C4=Nc5c(N)ncnc5OC4(C)C)cc3)CC2)n1 [Example 2-127]	10 to 100 nM	228 to 230 °C
CC1(C)Oc2ncnc(N)c2N=C1c1ccc([C@H]2CC[C@H](CNS(N)(=O)=O)CC2)cc1 [Example 2-130]	10 to 100 nM	226 to 227 °C
Cc1nc(N)c2c(n1)OC(C)(C)C(c1ccc([C@H]3CC[C@H](CC(=O)NS(C)(=O)=O)CC3)cc1)=N2 [Example 2-134]	< 10 nM	225 to 226 °C
Cc1nc(N)c2c(n1)OC(C)(C)C(c1ccc([C@H]3CC[C@H](CC(=O)NC(C)(C)CO)CC3)cc1)=N2 [Example 2-135]	10 to 100 nM	229 to 230 °C
Cc1nc(N)c2c(n1)OC(C)(C)C(c1ccc([C@H]3CC[C@H](CC(=O)N4CC(O)C(O)C4)CC3)cc1)=N2 (stereo partly drawn) [Example 2-136]	10 to 100 nM	210 to 211 °C
Cc1nc(N)c2c(n1)OC(C)(C)C(c1ccc([C@H]3CC[C@H](Cc4nn[nH]n4)CC3)cc1)=N2 [Example 2-137]	< 10 nM	> 250 °C
Cc1nc(N)c2c(n1)OC(C)(C)C(c1ccc([C@H]3CC[C@H](CNC(=O)CCO)CC3)cc1)=N2 [Example 2-140]	10 to 100 nM	223 to 224 °C
Cc1nc(N)c2c(n1)OC(C)(C)C(c1ccc([C@H]3CC[C@H](CCNC(=O)C(C)(C)O)CC3)cc1)=N2 [Example 2-141]	10 to 100 nM	221 to 223 °C
Cc1nc(N)c2c(n1)OC(C)(C)C(c1ccc(C3CC(CCC(=O)O)C3)cc1)=N2 (stereo not drawn) [Example 2-149]	10 to 100 nM	237 to 238 °C
Cc1nc(N)c2c(n1)OC(C)(C)C(c1ccc([C@H]3CC[C@H](CNC(=O)C(C)(C)O)CC3)cc1)=N2 [Example 2-150]	10 to 100 nM	228 to 229 °C
Cc1nc(N)c2c(n1)OC(C)(C)C(c1ccc([C@H]3CC[C@H](Cc4nc(=O)o[nH]4)CC3)cc1)=N2 [Example 2-151]	< 10 nM	> 250 °C
Cc1nc(N)c2c(n1)OC(C)(C)C(c1ccc([C@H]3CC[C@H](Cc4nc(=O)s[nH]4)CC3)cc1)=N2 [Example 2-152]	10 to 100 nM	225 to 226 °C
CC1(C)Oc2nc(C(F)(F)F)nc(N)c2N=C1c1ccc([C@H]2CC[C@H](CNC(=O)CO)CC2)cc1 [Example 2-154]	10 to 100 nM	229 to 233 °C
Cc1nc(N)c2c(n1)OC(C)(C)C(c1ccc([C@H]3CC[C@H](CN4CCOC4=O)CC3)cc1)=N2 [Example 2-158]	10 to 100 nM	240 to 241 °C
Cc1nc(N)c2c(n1)OC(C)(C)C(c1ccc([C@H]3CC[C@H](CN4CC(=O)NC4=O)CC3)cc1)=N2 [Example 2-159]	10 to 100 nM	148 °C (dec.)
Cc1nc(N)c2c(n1)OC(C)(C)C(c1ccc([C@H]3CC[C@H](CNC(N)=O)CC3)cc1)=N2 [Example 2-161]	10 to 100 nM	219 to 221 °C
Cc1nc(N)c2c(n1)OC(C)(C)C(c1ccc([C@H]3CC[C@H](CNC(=O)C(O)CCO)CC3)cc1)=N2 (stereo partly drawn) [Example 2-164]	10 to 100 nM	222 to 225 °C
Cc1nc(N)c2c(n1)OC(C)(C)C(c1ccc([C@H]3CC[C@H](CN4CCC(O)C4=O)CC3)cc1)=N2 (stereo partly drawn) [Example 2-166]	10 to 100 nM	225 to 233 °C
CC(=O)NCC[C@H]1CC[C@H](c2ccc(C3=Nc4c(N)ncnc4OC3(C)C)cc2)CC1 [Example 2-174]	10 to 100 nM	238 to 239 °C
CC1(C)Oc2ncnc(N)c2N=C1c1ccc([C@H]2CC[C@H](CCC(=O)N3CCC[C@H]3CO)CC2)cc1 [Example 2-178]	10 to 100 nM	143 to 160 °C
CC1(C)Oc2ncnc(N)c2N=C1c1ccc([C@H]2CC[C@H](CCNC(=O)[C@@H]3CCCN3)CC2)cc1 [Example 2-182]	10 to 100 nM	167 to 169 °C

The next lines start with the values.

IC50 (human DGAT1)	melting point	SMILES
10 to 100 nM	253 to 254 °C	CC(=O)NC[C@H]1CC[C@H](c2ccc(C3=Nc4c(N)ncnc4OC3(C)C)cc2)CC1 [Example 2-128]
10 to 100 nM	206 to 207 °C	Cc1ccc(S(=O)(=O)NC[C@H]2CC[C@H](c3ccc(C4=Nc5c(N)ncnc5OC4(C)C)cc3)CC2)cc1 [Example 2-129]
10 to 100 nM	230 to 231 °C	CC1(C)Oc2ncnc(N)c2N=C1c1ccc([C@H]2CC[C@H](CNC(=O)[C@@H]3CCCN3)CC2)cc1 [Example 2-131]
10 to 100 nM	217 to 218 °C	CC1(C)Oc2ncnc(N)c2N=C1c1ccc([C@H]2CC[C@H](CNC(=O)[C@@H]3C[C@@H](O)CN3)CC2)cc1 [Example 2-132]
10 to 100 nM	235 to 238 °C	Cc1nc(N)c2c(n1)OC(C)(C)C(c1ccc([C@H]3CC[C@H](CNC(=O)CO)CC3)cc1)=N2 [Example 2-138]
10 to 100 nM	249 to 250 °C	Cc1nc(N)c2c(n1)OC(C)(C)C(c1ccc([C@H]3CC[C@H](CNC(=O)C(C)(C)CO)CC3)cc1)=N2 [Example 2-139]
10 to 100 nM	142 to 144 °C	Cc1nc(N)c2c(n1)OC(C)(C)C(c1ccc([C@H]3CC[C@H](CC(=O)NCC(N)=O)CC3)cc1)=N2 [Example 2-142]
< 10 nM	196 to 198 °C	Cc1nc(N)c2c(n1)OC(C)(C)C(c1ccc([C@H]3CC[C@H](CC(=O)N(C)CC(=O)O)CC3)cc1)=N2 [Example 2-143]
10 to 100 nM	> 230 °C	Cc1nc(N)c2c(n1)OC(C)(C)C(c1ccc([C@H]3CC[C@H](CC(=O)N(C)CC(N)=O)CC3)cc1)=N2 [Example 2-144]
10 to 100 nM	> 250 °C	Cc1nc(N)c2c(n1)OC(C)(C)C(c1ccc(C3CC(CC(=O)O)C3(C)C)cc1)=N2 (stereo not drawn) [Example 2-145]
10 to 100 nM	> 250 °C	Cc1nc(N)c2c(n1)OC(C)(C)C(c1ccc(C3CC(CC(=O)O)C3)cc1)=N2 (stereo not drawn) [Example 2-146]
10 to 100 nM	> 230 °C	Cc1nc(N)c2c(n1)OC(C)(C)C(c1ccc([C@H]3CC[C@H](Cc4n[nH]c(=O)[nH]4)CC3)cc1)=N2 [Example 2-147]
< 10 nM	> 250 °C	Cc1nc(N)c2c(n1)OC(C)(C)C(c1ccc([C@H]3CC[C@H](CC(=O)Cc4nn[nH]n4)CC3)cc1)=N2 [Example 2-148]
10 to 100 nM	> 250 °C	CCn1c(C[C@H]2CC[C@H](c3ccc(C4=Nc5c(N)nc(C)nc5OC4(C)C)cc3)CC2)n[nH]c1=O [Example 2-156]
10 to 100 nM	185 to 186 °C	Cc1nc(N)c2c(n1)OC(C)(C)C(c1ccc([C@H]3CC[C@H](CCNC(=O)CO)CC3)cc1)=N2 [Example 2-160]
10 to 100 nM	216 to 250 °C	Cc1nc(N)c2c(n1)OC(C)(C)C(c1ccc([C@H]3CC[C@H](CNC4=NCCO4)CC3)cc1)=N2 [Example 2-162]
10 to 100 nM	219 to 221 °C	Cc1nc(N)c2c(n1)OC(C)(C)C(c1ccc([C@H]3CC[C@H](CNC(=O)C(O)C(C)(C)CO)CC3)cc1)=N2 (stereo partly drawn) [Example 2-163]
10 to 100 nM	> 250 °C	Cc1nc(N)c2c(n1)OC(C)(C)C(c1ccc([C@H]3CC[C@H](Cc4cc(O)n(C)n4)CC3)cc1)=N2 [Example 2-165]
10 to 100 nM	> 230 °C	Cc1nc(N)c2c(n1)OC(C)(C)C(c1ccc([C@H]3CC[C@H](Cc4nc(=O)[nH]n4C)CC3)cc1)=N2 [Example 2-169]
10 to 100 nM	> 250 °C	CC1(C)Oc2ncnc(N)c2N=C1c1ccc([C@H]2CC[C@H](CCc3cc(O)[nH]n3)CC2)cc1 [Example 2-172]
10 to 100 nM	218 to 219 °C	CC1(C)Oc2ncnc(N)c2N=C1c1ccc([C@H]2CC[C@H](CCNS(C)(=O)=O)CC2)cc1 [Example 2-173]
10 to 100 nM	230 to 231 °C	Cc1ccc(S(=O)(=O)NCC[C@H]2CC[C@H](c3ccc(C4=Nc5c(N)ncnc5OC4(C)C)cc3)CC2)cc1 [Example 2-175]
10 to 100 nM	196 to 198 °C	CC1(C)Oc2ncnc(N)c2N=C1c1ccc([C@H]2CC[C@H](CCNC(=O)CO)CC2)cc1 [Example 2-176]
10 to 100 nM	198 to 200 °C	CCCNC(=O)CC[C@H]1CC[C@H](c2ccc(C3=Nc4c(N)ncnc4OC3(C)C)cc2)CC1 [Example 2-177]
10 to 100 nM	168 to 170 °C	CN(CCO)C(=O)CC[C@H]1CC[C@H](c2ccc(C3=Nc4c(N)ncnc4OC3(C)C)cc2)CC1 [Example 2-179]
10 to 100 nM	200 to 202 °C	CC1(C)Oc2ncnc(N)c2N=C1c1ccc([C@H]2CC[C@H](CCC(=O)N3CCC(O)CC3)CC2)cc1 [Example 2-180]
10 to 100 nM	201 to 203 °C	CC1(C)Oc2ncnc(N)c2N=C1c1ccc([C@H]2CC[C@H](CCNC(=O)[C@@H]3C[C@@H](O)CN3)CC2)cc1 [Example 2-183]
